Laboratory results taken from paper PMC3177990 (Biochemistry, 2011).

Molecular target: human secretin receptor (Homo sapiens, UniProt P47872)
Assay: cAMP responses in CHO-SecR cells
Assay type: cell-based
Conditions: Figure 4, responses not significantly different from 1

Chain of human secretin receptor (P47872 23-440): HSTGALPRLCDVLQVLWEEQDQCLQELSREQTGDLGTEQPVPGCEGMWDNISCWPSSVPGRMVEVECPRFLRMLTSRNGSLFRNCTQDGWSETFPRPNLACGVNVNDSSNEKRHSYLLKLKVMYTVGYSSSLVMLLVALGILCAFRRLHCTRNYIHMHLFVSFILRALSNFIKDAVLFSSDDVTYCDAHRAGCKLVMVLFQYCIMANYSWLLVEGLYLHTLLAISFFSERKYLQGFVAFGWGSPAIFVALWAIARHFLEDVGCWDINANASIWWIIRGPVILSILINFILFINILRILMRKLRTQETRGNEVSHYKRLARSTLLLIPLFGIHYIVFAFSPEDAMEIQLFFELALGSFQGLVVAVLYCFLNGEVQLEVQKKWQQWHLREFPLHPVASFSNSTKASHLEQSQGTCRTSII

Row | Substance | agonist character, cAMP responses compared with [Y^10]sec(1-27) (1)
1 | cyclic [Glu^16,Lys^20][Tyr^10]human secretin(1-27) [compound 14] | full agonists
2 | cyclic [Glu^16,Lys^20]human secretin(1-27) [compound 15] | full agonists
